# Data from patent US7098204B2 (C.N.R.S., priority 1999, dated 2006).
# What was measured:
# cdk4/cyclin D1 = cdk4/cyclin D1 (Homo sapiens, UniProt P11802); assay: cdk4/cyclin D1 kinase assay; assay type: biochemical; conditions: 15 μM ATP
# Protocol: (§1) Kinases activities were assayed in Buffer A or C (unless otherwise stated), at 30° C., at a final ATP concentration of 15 μM. Blank values were subtracted and activities calculated as pmoles of phosphate incorporated for a 10 min. incubation (usually expressed in % of the maximal activity, i.e. without inhibitors). Controls were performed with appropriate dilutions of Me2SO. In some cases phosphorylation of the substrate was assessed by autoradiography after SDS-PAGE. IC50 values were estimated from the dose-response curves. • CDK1/cyclin B was extracted in homogenisation buffer from M phase starfish (Marthasterias glacialis) oocytes and purified by affinity chromatography on p9^CKShs1-Sepharose beads, from which it was eluted by free p9^CKShs1 as described. The kinase activity was assayed in buffer C, with 1 mg histone H1/ml, in the presence of 15 μM [γ-^32P] ATP (3,000 Ci/mmol; 1 mCi/ml) in a final volume of 30 μl. After 10 min. incubation at 30° C., 25 μl aliquots of supernatant were spotted onto 2.5×3 cm pieces of Whatman P81 phosphocellulose paper, and, 20 sec. later, the filters were washed five times (for at least 5 min. each time) in a solution of 10 ml phosphoric acid/liter of water. The wet filters were counted in the presence of 1 ml ACS (Amersham) scintillation fluid. • GSK-3β was either purified from rabbit muscle or expressed in and purified from insect Sf9 cells. […]
# casein kinase 1 = casein kinase 1 assay; assay type: biochemical; conditions: 15 μM ATP; −(x) = no effect at highest concentration x tested; read-out: IC50 casein kinase 1 (CK 1)
# Protocol: Kinases activities were assayed in Buffer A or C (unless otherwise stated), at 30° C., at a final ATP concentration of 15 μM. Blank values were subtracted and activities calculated as pmoles of phosphate incorporated for a 10 min. incubation (usually expressed in % of the maximal activity, i.e. without inhibitors). Controls were performed with appropriate dilutions of Me2SO. In some cases phosphorylation of the substrate was assessed by autoradiography after SDS-PAGE. IC50 values were estimated from the dose-response curves. • CDK1/cyclin B was extracted in homogenisation buffer from M phase starfish (Marthasterias glacialis) oocytes and purified by affinity chromatography on p9^CKShs1-Sepharose beads, from which it was eluted by free p9^CKShs1 as described. The kinase activity was assayed in buffer C, with 1 mg histone H1/ml, in the presence of 15 μM [γ-^32P] ATP (3,000 Ci/mmol; 1 mCi/ml) in a final volume of 30 μl. After 10 min. incubation at 30° C., 25 μl aliquots of supernatant were spotted onto 2.5×3 cm pieces of Whatman P81 phosphocellulose paper, and, 20 sec. later, the filters were washed five times (for at least 5 min. each time) in a solution of 10 ml phosphoric acid/liter of water. The wet filters were counted in the presence of 1 ml ACS (Amersham) scintillation fluid. • GSK-3β was either purified from rabbit muscle or expressed in and purified from insect Sf9 cells. It was assayed, following a 1/100 dilution in 1 mg BSA/ml 10 mM DTT, with 5 μl 40 μM GS-1 peptide as a substrate, in buffer A, in the presence of 15 μM [γ-^32P] ATP (3,000 Ci/mmol; 1 mCi/ml) in a final volume of 30 μl. […] Its activity was assayed in buffer C as described for CDK1/cyclin B. • CDK2/cyclin A, CDK2/cyclin E, CDK3/cyclin E, CDK4/cyclin D1, CDK6/cyclin D2, His-tagged erk1 and erk2, protein kinase C isoforms, the catalytic subunit of cAMP-dependent protein kinase, cGMP-dependent protein kinase, Myosin light chain kinase, casein kinases 1 & 2, ASK-γ (a plant homologue of GSK-3), insulin receptor tyrosine kinase domain (CIRK-41), c-raf, MAPKK, c-jun N terminal kinase (obtained from Promega), c-src kinase and v-abl kinase were assayed as described. Electrophoresis and Western Blotting
# ASK-γ (plant GSK-3) = ASK-γ (plant GSK-3) (Arabidopsis thaliana, UniProt P43289); assay: ASK-γ kinase assay; assay type: biochemical
# ASK-γ (plant GSK-3), sequence (P43289 whole entry): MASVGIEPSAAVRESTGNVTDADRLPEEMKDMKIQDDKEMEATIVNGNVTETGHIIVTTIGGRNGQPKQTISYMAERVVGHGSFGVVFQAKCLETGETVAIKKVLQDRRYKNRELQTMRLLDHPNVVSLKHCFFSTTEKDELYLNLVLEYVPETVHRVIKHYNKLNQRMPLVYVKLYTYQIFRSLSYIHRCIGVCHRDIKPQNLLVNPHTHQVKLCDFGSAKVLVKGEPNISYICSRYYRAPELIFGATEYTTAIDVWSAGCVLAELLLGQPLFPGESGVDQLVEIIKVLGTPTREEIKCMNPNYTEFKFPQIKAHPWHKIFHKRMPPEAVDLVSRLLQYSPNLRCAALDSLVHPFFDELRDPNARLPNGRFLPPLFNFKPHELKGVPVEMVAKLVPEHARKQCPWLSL
# Protocol: as §1
# protein kinase C δ = protein kinase C δ (Homo sapiens, UniProt Q05655); assay: protein kinase C δ assay; assay type: biochemical; conditions: 15 μM ATP
# protein kinase C δ, sequence (Q05655 whole entry): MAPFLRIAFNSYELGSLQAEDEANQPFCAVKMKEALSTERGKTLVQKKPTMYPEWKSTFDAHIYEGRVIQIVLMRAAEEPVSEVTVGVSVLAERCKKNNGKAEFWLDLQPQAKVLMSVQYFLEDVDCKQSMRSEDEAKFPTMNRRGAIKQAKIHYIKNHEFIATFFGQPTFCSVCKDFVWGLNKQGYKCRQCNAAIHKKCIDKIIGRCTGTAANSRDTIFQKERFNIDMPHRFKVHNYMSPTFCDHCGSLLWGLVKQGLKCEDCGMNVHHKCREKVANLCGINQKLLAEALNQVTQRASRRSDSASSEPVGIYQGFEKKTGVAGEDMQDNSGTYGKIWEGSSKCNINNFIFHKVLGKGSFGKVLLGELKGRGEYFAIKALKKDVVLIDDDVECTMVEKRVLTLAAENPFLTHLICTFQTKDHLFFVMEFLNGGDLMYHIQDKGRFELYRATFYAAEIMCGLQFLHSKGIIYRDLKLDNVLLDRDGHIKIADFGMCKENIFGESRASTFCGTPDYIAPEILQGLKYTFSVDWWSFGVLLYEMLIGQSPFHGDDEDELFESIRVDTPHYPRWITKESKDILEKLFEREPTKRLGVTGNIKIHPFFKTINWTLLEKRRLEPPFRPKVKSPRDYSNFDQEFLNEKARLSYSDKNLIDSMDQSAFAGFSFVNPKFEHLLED
# Protocol: as §1
# HT29-18-C1 cells = assay: HT29-18-C1 growth inhibition (cell counts); assay type: cell-based, human
# Protocol: Cell culture and treatments. HT29-18-C1, a subclone of the human colon adenocarcinoma cell line HT29, was cultured in Dulbecco's modified Eagle's medium (Gibco-BRL) supplemented with 10% FCS, 2 mM L-glutamine (Eurobio) and […] gentamycin (Gibco-BRL) at 37° C., 10% CO2. Cells were synchronized by serum deprivation for 48 h. They were then released from growth arrest by the addition of 5% fetal calf serum (FCS). HD, prepared in DMSO, was added immediately to the medium, for 24 h and at final concentrations ranging from 0 to 80 μM. In some experiments HD was added 22 h after serum addition for an additional 24 h. In other experiments HD was added to unsynchronised cells. Cells were then washed and cultured in 5% FCS medium and counted or analysed by FACS at different times.
# Cell counts and flow cytometric cell cycle analysis. Cell were counted with a hemocytometer. Cell cycle distribution was analysed by flow cytometry. The adherent cells (1.10^6) were trypsinised and fixed in cold 70% ethanol for 4 h. […] The stained cells were analysed on a FACScan cytofluorimeter using the cellFit Software program (Becton Dickinson Immunocytometry Systems).
# HT29-18-C1 cells were synchronised in G1 by serum deprivation. […] Cell number was determined every 12 h for a 72 h period using a hemocytometer. […] Serum-treated cells (time 0) were exposed to various HD concentrations and counted after 24 h. […]
# kidney, A498 = assay: Human cancer cell line A498 proliferation; assay type: cell-based
# protein kinase C ε = protein kinase C ε (Homo sapiens, UniProt Q02156); assay: protein kinase C ε assay; assay type: biochemical; conditions: 15 μM ATP
# protein kinase C ε, sequence (Q02156 whole entry): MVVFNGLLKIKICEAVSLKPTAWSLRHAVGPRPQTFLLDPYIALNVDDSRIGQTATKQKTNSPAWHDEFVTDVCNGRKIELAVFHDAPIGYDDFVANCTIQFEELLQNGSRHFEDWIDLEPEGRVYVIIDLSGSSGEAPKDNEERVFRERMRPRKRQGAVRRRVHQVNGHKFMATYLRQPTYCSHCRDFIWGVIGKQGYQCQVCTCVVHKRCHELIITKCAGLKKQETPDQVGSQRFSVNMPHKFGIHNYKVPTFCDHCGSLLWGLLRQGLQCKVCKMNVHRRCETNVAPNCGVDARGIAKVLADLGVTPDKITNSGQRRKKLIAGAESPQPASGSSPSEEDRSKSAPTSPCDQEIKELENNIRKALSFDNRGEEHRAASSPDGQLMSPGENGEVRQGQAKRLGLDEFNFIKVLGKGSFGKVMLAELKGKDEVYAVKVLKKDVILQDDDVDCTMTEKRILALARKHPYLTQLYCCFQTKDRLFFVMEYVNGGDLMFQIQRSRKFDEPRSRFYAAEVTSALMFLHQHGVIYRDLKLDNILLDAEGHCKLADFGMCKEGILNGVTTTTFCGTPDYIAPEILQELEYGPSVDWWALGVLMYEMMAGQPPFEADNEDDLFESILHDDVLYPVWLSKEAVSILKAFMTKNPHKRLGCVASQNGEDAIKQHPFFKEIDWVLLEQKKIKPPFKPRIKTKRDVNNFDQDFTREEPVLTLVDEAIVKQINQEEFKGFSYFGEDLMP
# Protocol: as §1
# CDK5/p35 = CDK5/p35 (Rattus norvegicus, UniProt Q03114); assay: In vitro Pak1 phosphorylation by immunoprecipitated CDK5/p35; assay type: biochemical; conditions: CDK5/p35 immunoprecipitated from P02 rat cortices; read-out: IC50 CDK5/p35 towards GST-Pak1K299
# CDK5/p35, sequence (Q03114 whole entry): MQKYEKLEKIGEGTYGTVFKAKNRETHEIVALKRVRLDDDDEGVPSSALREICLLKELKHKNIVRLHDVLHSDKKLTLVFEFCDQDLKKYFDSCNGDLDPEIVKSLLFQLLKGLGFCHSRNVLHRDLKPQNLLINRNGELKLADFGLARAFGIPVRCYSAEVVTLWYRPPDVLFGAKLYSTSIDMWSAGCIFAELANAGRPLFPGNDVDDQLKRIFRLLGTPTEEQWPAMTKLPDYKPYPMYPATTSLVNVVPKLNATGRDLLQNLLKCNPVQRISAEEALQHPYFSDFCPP
# CDK5/p35, sequence (P61810 2-307 partner limits assumed): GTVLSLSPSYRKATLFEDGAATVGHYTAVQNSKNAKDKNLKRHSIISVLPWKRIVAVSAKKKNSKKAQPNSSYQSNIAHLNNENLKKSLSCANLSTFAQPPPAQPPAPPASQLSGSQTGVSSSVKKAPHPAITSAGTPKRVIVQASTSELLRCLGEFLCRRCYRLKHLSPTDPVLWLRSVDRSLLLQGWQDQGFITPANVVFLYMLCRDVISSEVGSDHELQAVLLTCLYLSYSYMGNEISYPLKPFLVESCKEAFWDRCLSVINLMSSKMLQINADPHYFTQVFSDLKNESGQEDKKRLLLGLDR
# Protocol: CDK5/p35 was immunoprecipitaed from P02 rat cortices using the C-terminal Santa Cruz antibody (400 μg total protein per kinase assay). The immunoprecipitate was split into equal aliquots and the kinase assays performed using GST-Pak1 K299 as a substrate. […] Phosphorylation was monitored by autoradiography.
# melanoma, SK-MEL-5 = assay: Human cancer cell line SK-MEL-5 proliferation; assay type: cell-based
# colon, KM20L2 = assay: Human cancer cell line KM20L2 proliferation; assay type: cell-based; conditions: KM-20L2
# [1] = target: T1, Insulin receptor tyrosine Kinase (Homo sapiens, UniProt P06213); assay: insulin receptor tyrosine kinase assay; assay type: biochemical; conditions: 15 μM ATP
# T1 construct: insulin receptor tyrosine kinase domain (CIRK-41)
# T1 sequence (P06213 1023-1298 limits assumed): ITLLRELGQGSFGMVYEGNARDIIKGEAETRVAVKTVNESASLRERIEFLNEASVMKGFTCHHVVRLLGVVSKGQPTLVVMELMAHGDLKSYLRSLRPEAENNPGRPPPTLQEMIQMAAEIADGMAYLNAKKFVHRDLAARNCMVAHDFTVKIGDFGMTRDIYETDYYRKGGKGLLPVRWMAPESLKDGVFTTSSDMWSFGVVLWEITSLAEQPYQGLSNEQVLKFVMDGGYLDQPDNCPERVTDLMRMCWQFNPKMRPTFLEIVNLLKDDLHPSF
# Protocol: as §1
# c-src tyrosine kinase = c-src tyrosine kinase (Homo sapiens, UniProt P12931); assay: c-src tyrosine kinase assay; assay type: biochemical; conditions: 15 μM ATP
# c-src tyrosine kinase, sequence (P12931 whole entry): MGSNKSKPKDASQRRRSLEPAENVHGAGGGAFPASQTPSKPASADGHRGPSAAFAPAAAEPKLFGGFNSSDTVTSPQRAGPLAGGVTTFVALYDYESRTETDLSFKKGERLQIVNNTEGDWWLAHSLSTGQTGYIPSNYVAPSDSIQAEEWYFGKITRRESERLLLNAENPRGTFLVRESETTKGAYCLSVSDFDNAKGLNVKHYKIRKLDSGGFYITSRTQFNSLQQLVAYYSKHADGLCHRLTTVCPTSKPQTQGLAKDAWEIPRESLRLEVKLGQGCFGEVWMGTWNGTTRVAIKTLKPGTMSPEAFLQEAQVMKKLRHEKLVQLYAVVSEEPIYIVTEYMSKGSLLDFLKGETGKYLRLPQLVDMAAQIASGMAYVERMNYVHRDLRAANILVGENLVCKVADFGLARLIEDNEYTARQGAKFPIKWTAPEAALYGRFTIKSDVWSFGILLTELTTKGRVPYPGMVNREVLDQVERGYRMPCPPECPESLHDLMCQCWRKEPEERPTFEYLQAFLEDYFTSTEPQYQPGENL
# Protocol: as §1
# Eg2 kinase = Eg2 kinase (Xenopus laevis, UniProt Q91820); assay: Eg2 kinase assay; assay type: biochemical; conditions: 15 μM ATP
# Eg2 kinase, sequence (Q91820 whole entry): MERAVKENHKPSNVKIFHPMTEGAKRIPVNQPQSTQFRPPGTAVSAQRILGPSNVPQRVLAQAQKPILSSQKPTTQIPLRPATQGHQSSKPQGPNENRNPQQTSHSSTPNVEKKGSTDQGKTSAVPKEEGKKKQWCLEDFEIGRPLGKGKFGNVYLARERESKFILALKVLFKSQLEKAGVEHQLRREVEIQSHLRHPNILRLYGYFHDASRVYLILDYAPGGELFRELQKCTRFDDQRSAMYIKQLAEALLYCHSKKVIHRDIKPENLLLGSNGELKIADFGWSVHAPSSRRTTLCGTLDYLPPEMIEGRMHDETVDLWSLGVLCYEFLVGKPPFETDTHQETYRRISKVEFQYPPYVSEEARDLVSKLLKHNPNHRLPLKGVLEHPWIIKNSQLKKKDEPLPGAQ
# Protocol: Enzyme activities were assayed as described in the Experimental Procedures section, in the presence of increasing HD concentrations. IC50's were calculated from the dose-response curves.−, no effect at the highest dose tested (in parentheses).
# cdk4/cyclin D1, sequence (P11802 whole entry, species assumed): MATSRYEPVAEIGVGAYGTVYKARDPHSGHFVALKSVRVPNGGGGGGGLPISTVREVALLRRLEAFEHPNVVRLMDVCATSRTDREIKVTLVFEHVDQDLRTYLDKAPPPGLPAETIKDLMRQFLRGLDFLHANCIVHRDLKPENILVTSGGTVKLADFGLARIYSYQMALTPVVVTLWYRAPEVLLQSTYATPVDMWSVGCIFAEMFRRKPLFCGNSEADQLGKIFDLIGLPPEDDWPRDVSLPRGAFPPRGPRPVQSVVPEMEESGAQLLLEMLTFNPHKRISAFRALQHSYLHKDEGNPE
# cdk4/cyclin D1, sequence (P24385 whole entry partner, species assumed): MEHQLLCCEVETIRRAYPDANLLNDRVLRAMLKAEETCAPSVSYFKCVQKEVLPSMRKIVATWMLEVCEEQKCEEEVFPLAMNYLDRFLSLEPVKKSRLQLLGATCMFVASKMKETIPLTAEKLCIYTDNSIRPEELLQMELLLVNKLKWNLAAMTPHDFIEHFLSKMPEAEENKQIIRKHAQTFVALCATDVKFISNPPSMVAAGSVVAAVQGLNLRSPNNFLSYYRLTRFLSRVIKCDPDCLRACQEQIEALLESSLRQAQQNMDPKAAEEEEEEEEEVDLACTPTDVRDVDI
compound,measurement,setting,value
"NC1=NC(=O)C(=C2CCNC(=O)c3[nH]c(Br)cc32)N1 [hymenialdisine, 4-(2-amino-4-oxo-2-imidazolin-5-ylidene)-2-bromo-4,5,6,7-tetrahydropyrrolo (2,3-c) azepine-8-one]",IC50,cdk4/cyclin D1,600 nM
same,IC50,casein kinase 1,35 nM
same,IC50,ASK-γ (plant GSK-3),80 nM
same,IC50,protein kinase C δ,1100 nM
same,growth of HT29-18-C1 (cell number),"HT29-18-C1 cells; 10 μM for 24 h, followed over 72 h",strong growth inhibition
same,IC50,"HT29-18-C1 cells; Homo sapiens, serum-treated cells counted after 24 h",5 µM
same,IC50,"kidney, A498",24.7 µg/mL
same,IC50,protein kinase C ε,6.5 µM
same,IC50,CDK5/p35,10 to 100 nM
same,IC50,"melanoma, SK-MEL-5",5.7 µg/mL
same,IC50,"colon, KM20L2",8.5 µg/mL
same,IC50,[1],75 µM
same,IC50,c-src tyrosine kinase,7 µM
same,IC50,Eg2 kinase,4 µM
